In patent publication US20100068208A1, “Degranulation inhibitor” (priority 2005, published 2010):
Read-outs that look alike come from different tables or passages of the source.

What was measured:
[1] = test system: human mast cell line LAD 2; experiment: TGR12 ligand-dependent degranulation of LAD 2 (β-hexosaminidase release); assay type: cell-based
Protocol: Human mast cell line LAD 2 was incubated in StemPro-34 medium (Invitrogen) supplemented with 100 ng/mL of stem cell factor (Immuno-Biological Laboratories Co., Ltd.). […] Subsequently, Tyrode's buffer containing 50 μL of TGR12 ligand (Peptide Institute, Inc.) in various concentrations was added and incubation was continued at 37° C. for further 20 minutes to induce degranulation. The degree of degranulation was determined by assaying the β-hexosaminidase activity in the degranulation assay supernatant as given below. The supernatant was dispensed into a 96-well plate and 0.1M citrate (pH 4.5)/1 mM 4-methyl umbelliferyl-2-acetamido-2-deoxy-beta-D-glucopyranoside (Wako Pure Chemical) in 5-fold of the supernatant was added thereto, followed by incubation at 37° C. for an hour. […] The activity was then assayed using Fusion-α (Perkin-Elmer). The β-hexosaminidase activity was also shown by the activity in the supernatant obtained by centrifugation after freezing and thawing LAD 2 four times, which was made total β-hexosaminidase activity in LAD 2, and the degree of degranulation was shown as the percentage of the β-hexosaminidase activity in the LAD 2 supernatant based on the total β-hexosaminidase activity.

TGR12 [2] = assay type: cell-based, human; conditions: for EC50: CHO-TGR12, read-out: EC50 in the calcium increasing effect on CHO-TGR12
Protocol: CHO/dhfr^− cells (hereinafter CHO) were incubated in α-MEM (Invitrogen) supplemented with 10% fetal calf serum. After a termination codon in the TGR12-encoding nucleotide sequence was removed, a nucleotide sequence ligated with the nucleotide sequence encoding GFP (Wako Pure Chemical) [hereinafter briefly referred to as TGR12-GFP (DNA having the nucleotide sequence represented by SEQ ID NO: 31)] was incorporated into vector plasmid pAKKO-111H (the same vector plasmid as pAKKO1.11H described in Biochim. Biophys. Acta, 1219, 251-259 (1994)) for animal cell expression, and the vector plasmid was stably expressed to establish TGR12-GFP-expressed CHO cell line (hereinafter CHO-TGR12). CHO-TGR12 was incubated in nucleic acid-free α-MEM medium (Invitrogen) containing 10% dialyzed fetal calf serum.
CHO-TGR12 was plated in a 96-well plate at a density of 30,000 cells/well. After incubation overnight, the medium was discarded and 100 μL/well of assay buffer [Hank's Balanced Salt Solution (Invitrogen), 20 mM HEPES (Dojin Chemical Laboratory) and 2.5 mM Probenecid (Sigma)] containing 4 μM Fluo3-AM (Dojin Chemical Laboratory) was added, which was then allowed to stand for an hour at 37° C. […] After the cells were washed with assay buffer, fluorescence reflecting changes in intracellular calcium levels was assayed on FLIPR (Molecular Device). Ten seconds after initiation of the assay, 50 μL of a sample was added at a rate of 50 μL/second. Fluorescence measurement was taken every 1 second during the first 60 seconds and then every 6 seconds during the next 120 seconds; the highest fluorescence intensity over a 3 minute period was taken as the maximum activity under the stimulation condition, representing the mean value of 3 wells. The EC50 values were determined using Graphpad PRISM 4 (Graphpad Software).

TGR12 [3] = test system: TGR12; parameters: species or system human; conditions: CHO-TGR12GFP, 200 pM [125I]-rCST14 (Y0), 4° C. 2 hours; read-out: IC50 (competitive binding, Hill plot analysis)
Protocol: [^125I]-Labeled rat cortistatin-14 (Tyr0) (hereinafter [^125I]-rCST14 (Y0)) used for the competitive binding assay was prepared as follows. After 3 nmol/6 μL of rCST14 (Y0) (Funakoshi Co.), 6 μL of 10 μg/mL lactoperoxidase (in 0.1M HEPES (pH 7, 4)), 6 μL of 0.001% H2O2 and 6 μL of 37 MBq NaI (6 μL of 15 mg/100 mL NaI was used in cold run) were mixed, the mixture was reacted at room temperature for 20 minutes. […] For fractionation, TSKgel ODS-80™ was used, 10% MeCN/0.1% TFA was used as eluant A and 60% MeCN/0.1% TFA was used as eluant B at a gradient of 0-25 (2 mins.), 25-27.5 (3 mins.) and 27.5-35 (60 mins.), respectively; and the flow rate was 1 mL/min.
CHO/dhfr^− cells (hereinafter CHO) were incubated in α-MEM (Invitrogen) supplemented with 10% fetal calf serum. […]
The binding assay using CHO-TGR12GFP was performed as follows. […] After washing 3 times with 500 μL of the assay buffer, the cells were lysed in 250 μL of 0.5N NaOH and the lysate was recovered for measurement of the radioactivity.

[4] = LAD 2, read-out: EC50 in the degranulation on LAD 2
[5] = CHO-TGR12, 0.3 nM, highest fluorescence intensity over 3 minutes

CC[C@H](C)[C@H](NC(=O)CNC(=O)[C@H](CC(=O)O)NC(=O)[C@H](CO)NC(=O)[C@@H](N)Cc1c[nH]cn1)C(=O)N[C@@H](Cc1ccccc1)C(=O)N[C@H](C(=O)N[C@@H](CC(=O)O)C(=O)N[C@@H](CO)C(=O)N[C@@H](Cc1ccc(O)cc1)C(=O)N[C@@H](CO)C(=O)N[C@@H](CCCNC(=N)N)C(=O)N[C@@H](Cc1ccc(O)cc1)C(=O)N[C@@H](CCCNC(=N)N)C(=O)N[C@@H](CCCCN)C(=O)N[C@@H](CCC(N)=O)C(=O)N[C@@H](CCSC)C(=O)N[C@@H](C)C(=O)N[C@H](C(=O)N[C@@H](CCCCN)C(=O)N[C@@H](CCCCN)C(=O)N[C@@H](Cc1ccc(O)cc1)C(=O)N[C@@H](CC(C)C)C(=O)N[C@@H](C)C(=O)N[C@@H](C)C(=O)N[C@H](C(=O)N[C@@H](CC(C)C)C(N)=O)C(C)C)C(C)C)[C@@H](C)O [PACAP-27]
stimulated degranulation (β-hexosaminidase in supernatant, % of total) ([1]; LAD 2, 10 nM): 2.6%
stimulated degranulation (β-hexosaminidase in supernatant, % of total) ([1]; LAD 2, 30 nM): 19.6%
stimulated degranulation (β-hexosaminidase in supernatant, % of total) ([1]; LAD 2, 100 nM): 59.4%
stimulated degranulation (β-hexosaminidase in supernatant, % of total) ([1]; LAD 2, 300 nM): 71.1%
stimulated degranulation (β-hexosaminidase in supernatant, % of total) ([1]; LAD 2, 1 μM): 75.1%
stimulated degranulation (β-hexosaminidase in supernatant, % of total) ([1]; LAD 2, 3 μM): 69.1%
EC50 [1, 4]: ~51 nM
maximum activity in the calcium increasing effect (TGR12 [2]; [5]): 48
maximum activity in the calcium increasing effect (TGR12 [2]; CHO-TGR12, 3 nM): 58
maximum activity in the calcium increasing effect (TGR12 [2]; CHO-TGR12, 30 nM): 939
maximum activity in the calcium increasing effect (TGR12 [2]; CHO-TGR12, 300 nM): 23030
maximum activity in the calcium increasing effect (TGR12 [2]; CHO-TGR12, 3000 nM): 23728
EC50 (TGR12 [2]): ~93 nM
IC50 (TGR12 [3]): 264 nM

CSCC[C@H](NC(=O)[C@H](CCCNC(=N)N)NC(=O)[C@@H](N)CC(=O)O)C(=O)N1CCC[C@H]1C(=O)N[C@H]1CSSC[C@@H](C(=O)N[C@@H](CCCCN)C(=O)O)NC(=O)[C@H](CO)NC(=O)[C@H](CO)NC(=O)[C@H](Cc2ccccc2)NC(=O)[C@H]([C@@H](C)O)NC(=O)[C@H](CCCCN)NC(=O)[C@H](Cc2c[nH]c3ccccc23)NC(=O)[C@H](Cc2ccccc2)NC(=O)[C@H](Cc2ccccc2)NC(=O)[C@H](CC(N)=O)NC(=O)[C@H](CCCNC(=N)N)NC1=O [cortistatin-17]
stimulated degranulation (β-hexosaminidase in supernatant, % of total) ([1]; LAD 2, 10 nM): 1.6%
stimulated degranulation (β-hexosaminidase in supernatant, % of total) ([1]; LAD 2, 30 nM): 2.8%
stimulated degranulation (β-hexosaminidase in supernatant, % of total) ([1]; LAD 2, 100 nM): 26.5%
stimulated degranulation (β-hexosaminidase in supernatant, % of total) ([1]; LAD 2, 300 nM): 52.8%
stimulated degranulation (β-hexosaminidase in supernatant, % of total) ([1]; LAD 2, 1 μM): 62.2%
stimulated degranulation (β-hexosaminidase in supernatant, % of total) ([1]; LAD 2, 3 μM): 58.9%
maximum activity in the calcium increasing effect (TGR12 [2]; [5]): 67
maximum activity in the calcium increasing effect (TGR12 [2]; CHO-TGR12, 3 nM): 54
maximum activity in the calcium increasing effect (TGR12 [2]; CHO-TGR12, 30 nM): 94
maximum activity in the calcium increasing effect (TGR12 [2]; CHO-TGR12, 300 nM): 17914
maximum activity in the calcium increasing effect (TGR12 [2]; CHO-TGR12, 3000 nM): 23647

CC(C)C[C@H](NC(=O)[C@H](C)NC(=O)[C@H](Cc1c[nH]c2ccccc12)NC(=O)[C@H](CCCCN)NC(=O)[C@H](CC(N)=O)NC(=O)[C@H](Cc1c[nH]c2ccccc12)NC(=O)[C@H](CCCCN)NC(=O)[C@H](CCCCN)NC(=O)[C@H](CCCNC(=N)N)NC(=O)[C@@H](N)Cc1ccccc1)C(=O)N[C@@H](CO)C(=O)N[C@@H](CCCNC(=N)N)C(N)=O [PAMP-12, proadrenomedullin N-terminal 20 peptide (9-20)]
EC50 [1]: ~13 nM
stimulated degranulation (β-hexosaminidase in supernatant, % of total) ([1]; LAD 2, 3 nM): 6.3%
stimulated degranulation (β-hexosaminidase in supernatant, % of total) ([1]; LAD 2, 10 nM): 30.7%
stimulated degranulation (β-hexosaminidase in supernatant, % of total) ([1]; LAD 2, 30 nM): 52.1%
stimulated degranulation (β-hexosaminidase in supernatant, % of total) ([1]; LAD 2, 100 nM): 65.2%
stimulated degranulation (β-hexosaminidase in supernatant, % of total) ([1]; LAD 2, 300 nM): 67.7%
stimulated degranulation (β-hexosaminidase in supernatant, % of total) ([1]; LAD 2, 1 μM): 69.3%
maximum activity in the calcium increasing effect (TGR12 [2]; [5]): 255
maximum activity in the calcium increasing effect (TGR12 [2]; CHO-TGR12, 3 nM): 1617
maximum activity in the calcium increasing effect (TGR12 [2]; CHO-TGR12, 30 nM): 22291
maximum activity in the calcium increasing effect (TGR12 [2]; CHO-TGR12, 300 nM): 24088
maximum activity in the calcium increasing effect (TGR12 [2]; CHO-TGR12, 3000 nM): 23743
EC50 (TGR12 [2]): ~98 nM

CC[C@H](C)[C@H](NC(=O)[C@H](CO)NC(=O)[C@H](CC(N)=O)NC(=O)[C@H](CC(C)C)NC(=O)[C@H](Cc1ccc(O)cc1)NC(=O)[C@H](CCCCN)NC(=O)[C@H](CCCCN)NC(=O)[C@@H](NC(=O)[C@H](C)NC(=O)[C@H](CCSC)NC(=O)[C@H](CCC(N)=O)NC(=O)[C@H](CCCCN)NC(=O)[C@H](CCCNC(=N)N)NC(=O)[C@H](CC(C)C)NC(=O)[C@H](CCCNC(=N)N)NC(=O)[C@@H](NC(=O)[C@H](Cc1ccc(O)cc1)NC(=O)[C@H](CC(N)=O)NC(=O)[C@H](CC(=O)O)NC(=O)[C@@H](NC(=O)[C@H](Cc1ccccc1)NC(=O)[C@@H](NC(=O)[C@H](C)NC(=O)[C@H](CC(=O)O)NC(=O)[C@H](CO)NC(=O)[C@@H](N)Cc1c[nH]cn1)C(C)C)[C@@H](C)O)[C@@H](C)O)C(C)C)C(=O)N[C@@H](CC(C)C)C(=O)N[C@@H](CC(N)=O)C(N)=O [VIP, vasoactive intestinal polypeptide]
stimulated degranulation (β-hexosaminidase in supernatant, % of total) ([1]; LAD 2, 10 nM): 1.5%
stimulated degranulation (β-hexosaminidase in supernatant, % of total) ([1]; LAD 2, 30 nM): 4.0%
stimulated degranulation (β-hexosaminidase in supernatant, % of total) ([1]; LAD 2, 100 nM): 36.7%
stimulated degranulation (β-hexosaminidase in supernatant, % of total) ([1]; LAD 2, 300 nM): 63.9%
stimulated degranulation (β-hexosaminidase in supernatant, % of total) ([1]; LAD 2, 1 μM): 71.7%
stimulated degranulation (β-hexosaminidase in supernatant, % of total) ([1]; LAD 2, 3 μM): 76.1%
EC50 [1, 4]: ~105 nM
maximum activity in the calcium increasing effect (TGR12 [2]; [5]): 56
maximum activity in the calcium increasing effect (TGR12 [2]; CHO-TGR12, 3 nM): 60
maximum activity in the calcium increasing effect (TGR12 [2]; CHO-TGR12, 30 nM): 16
maximum activity in the calcium increasing effect (TGR12 [2]; CHO-TGR12, 300 nM): 11153
maximum activity in the calcium increasing effect (TGR12 [2]; CHO-TGR12, 3000 nM): 24007
EC50 (TGR12 [2]): ~305 nM
IC50 (TGR12 [3]): 2040 nM
